Data on four compounds can be found in ChEMBL document CHEMBL3352687, “Synthesis of N-glycan units for assessment of substrate structural requirements of N-acetylglucosaminyltransferase III” (Bioorg Med Chem Lett, 2014).

The structures appear in SMILES notation. Activity calls are given as the source filed them. The calls are words filed in the database; no cut-off is given here.

A short description of this assay: Competitive inhibition of human N-terminally His6-tagged N-acetylglucosaminyltransferase 3 expressed in HEK293T cells assessed as GN-GnGnbi-PAs molar ratio level at 100 to 500 uM incubated for 4 hrs using GnGnbi-PA acceptor substrate and UDP-GlcNAc donor substrate by reverse phase HPLC method. The conditions noted are these: HEK-293T.
Turning to `CO[C@H]1O[C@H](CO[C@H]2O[C@H](CO)[C@@H](O)[C@H](O)[C@@H]2O[C@@H]2O[C@H](CO)[C@@H](O)[C@H](O)[C@H]2NC(C)=O)[C@@H](O[C@@H]2O[C@H](CO)[C@@H](O)[C@H](O)[C@H]2NC(C)=O)[C@H](O[C@H]2O[C@H](CO)[C@@H](O)[C@H](O)[C@@H]2O[C@@H]2O[C@H](CO)[C@@H](O)[C@H](O)[C@H]2NC(C)=O)[C@@H]1O`, the inhibition result is “Active”. The result for `CO[C@H]1O[C@H](CO[C@H]2O[C@H](CO)[C@@H](O)[C@H](O)[C@@H]2O[C@@H]2O[C@H](CO)[C@@H](O)[C@H](O)[C@H]2NC(C)=O)[C@@H](O)[C@H](O[C@H]2O[C@H](CO)[C@@H](O)[C@H](O)[C@@H]2O[C@@H]2O[C@H](CO)[C@@H](O)[C@H](O)[C@H]2NC(C)=O)[C@@H]1O` reads “Active”. On to `CO[C@H]1O[C@H](CO[C@H]2O[C@H](CO)[C@@H](O)[C@H](O)[C@@H]2O)[C@@H](O)[C@H](O[C@H]2O[C@H](CO)[C@@H](O)[C@H](O)[C@@H]2O)[C@@H]1O`, for which the inhibition entry was “inactive”. Turning to `CO[C@H]1O[C@H](CO[C@H]2O[C@H](CO)[C@@H](O)[C@H](O)[C@@H]2O)[C@@H](O[C@@H]2O[C@H](CO)[C@@H](O)[C@H](O)[C@H]2NC(C)=O)[C@H](O[C@H]2O[C@H](CO)[C@@H](O)[C@H](O)[C@@H]2O)[C@@H]1O`, the inhibition result was “inactive”.
